Results as given in the NIST ThermoML archive (doi:10.1021/je049544x).
Numbers after ± are expanded uncertainties.

Tests used:
[1] = refractive index (Na D-line) (dimensionless); conditions: 298.15 K; 101.33 kPa; Liquid; Standard Abbe refractometry
[2] = Liquid; for mass density / speed of sound: 298.15 K, 101.3 kPa; for speed of sound: Sing-around technique in a fixed-path interferometer
[3] = refractive index (Na D-line) (dimensionless); xn = mol fraction of the nth substance listed; conditions: 298.15 K, 101.3 kPa, Liquid, Standard Abbe refractometry
[4] = xn = mol fraction of the nth substance listed; conditions: 298.15 K, 101.3 kPa, Liquid; for speed of sound: Sing-around technique in a fixed-path interferometer

CCOC(=O)OCC [diethyl carbonate]
Conditions | mass density [kg/m3] | refractive index | speed of sound [m/s]
[1] | – | 1.38221 ± 0.00072 | –
[2] | 969 ± 0.25 | – | 1176.1 ± 1.2

Conditions | vapor or sublimation pressure [kPa]
[2], 399.6 K | 101.3 ± 0.3

CCOC(=O)OCC [diethyl carbonate] + C=COC(C)=O
x2 = 0
Conditions | mass density [kg/m3] | refractive index | speed of sound [m/s]
[3] | – | 1.38221 ± 0.00072 | –
[4] | 969 ± 0.25 | – | 1176.1 ± 1.2

CCOC(=O)OCC [diethyl carbonate] + CO
Conditions | mass density, [4] [kg/m3] | refractive index, [3] | speed of sound, [4] [m/s]
x2 = 0 | 969 ± 0.25 | 1.38221 ± 0.00072 | 1176.1 ± 1.2
x2 = 0.063 | 964.93 ± 0.26 | 1.38098 ± 0.00072 | 1174.8 ± 1.2
x2 = 0.098 | 962.48 ± 0.26 | 1.38026 ± 0.00072 | 1174.1 ± 1.2
x2 = 0.159 | 958.15 ± 0.27 | 1.37901 ± 0.00072 | 1171.5 ± 1.2
x2 = 0.192 | 955.62 ± 0.27 | 1.37825 ± 0.00072 | 1169.9 ± 1.2
x2 = 0.251 | 950.7 ± 0.28 | 1.3769 ± 0.00072 | 1167 ± 1.2
x2 = 0.302 | 946.14 ± 0.29 | 1.37563 ± 0.00072 | 1164.3 ± 1.2
x2 = 0.371 | 939.23 ± 0.3 | 1.37345 ± 0.00072 | 1160.6 ± 1.2
x2 = 0.415 | 934.4 ± 0.31 | 1.37205 ± 0.00072 | 1158.1 ± 1.2
x2 = 0.453 | 929.92 ± 0.32 | 1.3705 ± 0.00072 | 1155.9 ± 1.2
x2 = 0.49 | 925.16 ± 0.34 | 1.36915 ± 0.00072 | 1153.8 ± 1.2
x2 = 0.543 | 917.68 ± 0.35 | 1.367 ± 0.00072 | 1150.2 ± 1.2
x2 = 0.592 | 910.04 ± 0.36 | 1.36457 ± 0.00072 | 1146.9 ± 1.2
x2 = 0.655 | 898.92 ± 0.38 | 1.36118 ± 0.00072 | 1142.2 ± 1.2
x2 = 0.69 | 892 ± 0.4 | 1.359 ± 0.00072 | 1139.5 ± 1.2
x2 = 0.75 | 878.54 ± 0.42 | 1.35486 ± 0.00072 | 1134.1 ± 1.2
x2 = 0.8 | 865.37 ± 0.45 | 1.3509 ± 0.00072 | 1129.2 ± 1.2
x2 = 0.848 | 850.75 ± 0.47 | 1.34641 ± 0.00072 | 1123.8 ± 1.2
x2 = 0.897 | 833.8 ± 0.51 | 1.34105 ± 0.00072 | 1117.8 ± 1.2
x2 = 0.948 | 812.41 ± 0.55 | 1.3344 ± 0.00072 | 1110.4 ± 1.2

CO [methanol]
Conditions | mass density [kg/m3] | refractive index | speed of sound [m/s]
[1] | – | 1.32634 ± 0.00072 | –
[2] | 786.56 ± 0.6 | – | 1101.8 ± 1.2

Conditions | vapor or sublimation pressure [kPa]
[2], 337.9 K | 101.3 ± 0.3

CO [methanol] + CCOC(=O)OCC
x1 = 1
Conditions | mass density [kg/m3] | refractive index | speed of sound [m/s]
[3] | – | 1.32634 ± 0.00072 | –
[4] | 786.56 ± 0.6 | – | 1101.8 ± 1.2

C=COC(C)=O [vinyl acetate]
Conditions | mass density [kg/m3] | refractive index | speed of sound [m/s]
[1] | – | 1.39253 ± 0.00073 | –
[2] | 925.59 ± 0.37 | – | 1115.6 ± 1.2

Conditions | vapor or sublimation pressure [kPa]
[2], 346.1 K | 101.3 ± 0.4

C=COC(C)=O [vinyl acetate] + CCOC(=O)OCC
Conditions | mass density, [4] [kg/m3] | refractive index, [3] | speed of sound, [4] [m/s]
x1 = 0.043 | 967.68 ± 0.25 | 1.3826 ± 0.00072 | 1174.2 ± 1.2
x1 = 0.105 | 965.65 ± 0.26 | 1.3832 ± 0.00072 | 1171.2 ± 1.2
x1 = 0.17 | 963.45 ± 0.26 | 1.38373 ± 0.00072 | 1167.9 ± 1.2
x1 = 0.193 | 962.74 ± 0.27 | 1.38396 ± 0.00072 | 1166.9 ± 1.2
x1 = 0.254 | 960.55 ± 0.27 | 1.38458 ± 0.00072 | 1163.6 ± 1.2
x1 = 0.299 | 958.92 ± 0.28 | 1.385 ± 0.00072 | 1161.2 ± 1.2
x1 = 0.353 | 956.87 ± 0.28 | 1.3855 ± 0.00072 | 1158.2 ± 1.2
x1 = 0.407 | 954.79 ± 0.29 | 1.38602 ± 0.00072 | 1155.2 ± 1.2
x1 = 0.458 | 952.74 ± 0.3 | 1.38655 ± 0.00072 | 1152.3 ± 1.2
x1 = 0.507 | 950.71 ± 0.3 | 1.38706 ± 0.00072 | 1149.3 ± 1.2
x1 = 0.556 | 948.6 ± 0.31 | 1.38757 ± 0.00072 | 1146.4 ± 1.2
x1 = 0.598 | 946.73 ± 0.31 | 1.38804 ± 0.00072 | 1143.7 ± 1.2
x1 = 0.65 | 944.3 ± 0.32 | 1.38859 ± 0.00072 | 1140.4 ± 1.2
x1 = 0.697 | 942.05 ± 0.32 | 1.38917 ± 0.00072 | 1137.2 ± 1.2
x1 = 0.744 | 939.73 ± 0.33 | 1.38968 ± 0.00072 | 1134.1 ± 1.2
x1 = 0.803 | 936.72 ± 0.34 | 1.39031 ± 0.00072 | 1130.1 ± 1.2
x1 = 0.85 | 934.22 ± 0.34 | 1.39087 ± 0.00072 | 1126.7 ± 1.2
x1 = 0.901 | 931.44 ± 0.35 | 1.39143 ± 0.00073 | 1123.1 ± 1.2
x1 = 0.946 | 928.87 ± 0.36 | 1.39197 ± 0.00073 | 1119.8 ± 1.2
x1 = 1 | 925.59 ± 0.37 | 1.39253 ± 0.00073 | 1115.6 ± 1.2
